Data taken from PubChem BioAssay (NCI).
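Five compound concentrations were applied to cells in 96-well plates for 48 hours; endpoints were derived by simple linear interpolation of the resulting dose-response curve. Definition used: TGI = concentration required for complete inhibition of growth.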

Columns and labels:
Assay in all cases: growth of human tumour cells (NCI), 48 h
[1] = system: SF-268 CNS
[2] = system: HT29 colon
[3] = system: DU-145 prostate
[4] = system: U251 CNS
[5] = system: MOLT-4 leukemia
[6] = system: MDA-MB-231 breast
[7] = system: ACHN renal
[8] = system: MDA-N
[9] = system: A498 renal
[10] = system: NCI-H522 lung
[11] = system: T-47D breast
[12] = system: HOP-92 NSCLC
[13] = system: RXF 393 renal
[14] = system: SK-MEL-28 melanoma
[15] = system: 786-0 renal
[16] = system: UO-31 renal
[17] = system: SF-539 CNS
[18] = system: SN12C renal
[19] = system: MALME-3M melanoma
[20] = system: CAKI-1 renal
[21] = system: HCC-2998 colon
[22] = system: SF-295 CNS
[23] = system: TK-10 renal
[24] = system: EKVX NSCLC
[25] = system: SK-MEL-2 melanoma
[26] = system: HOP-62 NSCLC
[27] = system: K-562 leukemia
[28] = system: SW-620 colon
[29] = system: NCI-H226 lung
[30] = system: OVCAR-4 ovarian
[31] = system: BT-549 breast
[32] = system: KM12 colon
[33] = system: M14 melanoma
[34] = system: IGROV1 ovarian
[35] = system: RPMI-8226 leukemia
[36] = system: MCF7 breast
[37] = system: SR leukemia
[38] = system: SK-OV-3 ovarian
[39] = system: UACC-257 melanoma
[40] = system: LOX IMVI melanoma
[41] = system: OVCAR-8 ovarian
[42] = system: SK-MEL-5 melanoma
[43] = system: MDA-MB-435
[44] = system: SNB-19 CNS
[45] = system: UACC-62 melanoma
[46] = system: HS 578T breast
[47] = system: HCT-15 colon
[48] = system: PC-3 prostate
[49] = system: COLO 205 colon
[50] = system: NCI-H460 lung
[51] = system: A549 NSCLC
[52] = system: NCI-H23 lung
[53] = system: SNB-75 CNS
[54] = system: CCRF-CEM leukemia
[55] = system: HL-60(TB) leukemia
[56] = system: NCI/ADR-RES ovarian
[57] = system: OVCAR-3 ovarian
[58] = system: OVCAR-5 ovarian
[59] = system: HCT-116 colon

In the case of `N=C(N)SCCCN`, the TGI [1] is reported as 79.2 µM, the TGI [2] is reported as 62.3 µM and the TGI [3] is reported as 51.1 µM. It also gave a TGI [4] of 24.6 µM, a TGI [5] of 3.16 µM and a TGI [6] of 12.1 µM. The TGI [7] was 26.5 µM, the TGI [8] was 26 µM and the TGI [9] was over 100 µM. For the same compound, the TGI [10] was 25.5 µM, the TGI [11] was over 100 µM and the TGI [12] was over 40.6 µM. It also gave a TGI [13] of 26 µM, a TGI [14] of over 86 µM and a TGI [15] of 66.1 µM. It also gave a TGI [16] of 37.5 µM, a TGI [17] of 30.9 µM and a TGI [18] of 69.8 µM. For the same compound, the TGI [19] was 29.1 µM, the TGI [20] was over 69.9 µM and the TGI [21] was 20.3 µM. It also gave a TGI [22] of over 66.8 µM, a TGI [23] of 20.7 µM and a TGI [24] of over 91.4 µM. For the same compound, the TGI [25] was 32.2 µM, the TGI [26] was 35.7 µM and the TGI [27] was over 66.8 µM. For the same compound, the TGI [28] was over 100 µM, the TGI [29] was 66 µM and the TGI [30] was over 30.9 µM. The TGI [31] was over 60.9 µM, the TGI [32] was 59.6 µM and the TGI [33] was 14.2 µM. The TGI [34] was 15.6 µM, the TGI [35] was over 68.9 µM and the TGI [36] was over 59.9 µM. It also gave a TGI [37] of 23.5 µM, a TGI [38] of 73.4 µM and a TGI [39] of 26 µM. For the same compound, the TGI [40] was 13.6 µM, the TGI [41] was over 100 µM and the TGI [42] was 30.1 µM. The TGI [43] was 14 µM, the TGI [44] was over 82.7 µM and the TGI [45] was 35 µM. The TGI [46] was 43.5 µM, the TGI [47] was over 100 µM and the TGI [48] was 54.1 µM. It also gave a TGI [49] of 29.5 µM, a TGI [50] of 15.8 µM and a TGI [51] of over 100 µM. For the same compound, the TGI [52] was 41.2 µM, the TGI [53] was over 100 µM and the TGI [54] was 9.2 µM. It also gave a TGI [55] of 7.75 µM, a TGI [56] of over 62.1 µM and a TGI [57] of 30.5 µM. For the same compound, the TGI [58] was over 100 µM and the TGI [59] was 30.7 µM.
Compound `O=C1c2ccccc2C(=O)N1C1(C(=O)NC2(C(=O)O)CCCC2)CCCC1` has a TGI [1] of over 100 µM, a TGI [2] of over 100 µM and a TGI [3] of over 100 µM. It also gave a TGI [4] of over 100 µM, a TGI [5] of over 100 µM and a TGI [6] of over 100 µM. The TGI [7] was over 100 µM, the TGI [8] was over 100 µM and the TGI [9] was over 100 µM. It also gave a TGI [10] of over 100 µM, a TGI [11] of over 100 µM and a TGI [13] of over 100 µM. For the same compound, the TGI [14] was over 100 µM, the TGI [15] was over 100 µM and the TGI [16] was over 100 µM. The TGI [18] was over 100 µM, the TGI [19] was over 100 µM and the TGI [20] was over 100 µM. For the same compound, the TGI [21] was over 100 µM, the TGI [22] was over 100 µM and the TGI [23] was over 100 µM. The TGI [24] was over 100 µM, the TGI [25] was over 100 µM and the TGI [26] was over 100 µM. The TGI [27] was over 100 µM, the TGI [28] was over 100 µM and the TGI [29] was over 100 µM. For the same compound, the TGI [30] was over 100 µM, the TGI [31] was over 100 µM and the TGI [32] was over 100 µM. It also gave a TGI [33] of over 100 µM, a TGI [34] of over 100 µM and a TGI [35] of over 100 µM. The TGI [36] was over 100 µM, the TGI [37] was over 100 µM and the TGI [38] was over 100 µM. For the same compound, the TGI [39] was over 100 µM, the TGI [40] was over 100 µM and the TGI [41] was over 100 µM. It also gave a TGI [42] of over 100 µM, a TGI [43] of over 100 µM and a TGI [44] of over 100 µM. For the same compound, the TGI [45] was over 100 µM, the TGI [46] was over 100 µM and the TGI [47] was over 100 µM. The TGI [48] was over 100 µM, the TGI [49] was over 100 µM and the TGI [51] was over 100 µM. The TGI [52] was over 100 µM, the TGI [53] was over 100 µM and the TGI [54] was over 100 µM. It also gave a TGI [56] of over 100 µM, a TGI [57] of over 100 µM and a TGI [58] of over 100 µM. For the same compound, the TGI [59] was over 100 µM.
